Measurements published in US20250002448A1, “ALLOSTERIC MODULATORS OF NICOTINIC ACETYLCHOLINE RECEPTORS” (MERCK SHARP & DOHME LLC, priority 2021, published 2025).
Like-named read-outs stand apart in the source and are kept apart here.

Molecular target: T1, human a7 nAChR (Homo sapiens, UniProt P36544)
T1 construct: catalogue number not given
Test: automated patch-clamp electrophysiology functional assay (Assay A), IonFlux HT
Type: cell-based
Details: HEK cell line stably expressing human RIC-3 and human a7, whole-cell population patch, 40 μM acetylcholine
Experimental: The a7 nAChR positive allosteric modulator (PAM) activity of the present compounds may be tested using assays known in the art. The a7 nAChR PAMs described herein have activities in an automated patch-clamp electrophysiology functional assay as described in the examples. The assay was performed using the lonFlux HT in a whole-cell, population patch configuration. See Golden et al. Assay Drug Dev. Technol. (2011) 9:608-619. The compounds were assessed for their ability to modulate the function of the human a7 nAChR stably expressed in a HEK cell line both in the presence, and in the absence of the natural a7 agonist acetylcholine. By performing a series of such measurements at different concentrations, the effective concentration of the a7 nAChR PAMs (EC50) was determined. See Spencer et al. Assay Drug Dev. Technol. (2012) 10:313-324.
Direct activation of a7 (agonism), and potentiation of acetylcholine-evoked a7 currents was determined as follows:
Automated patch-clamp electrophysiology was performed using the IonFlux HT (Fluxion Biosciences Inc., San Francisco, CA) in the whole-cell, population patch configuration. Test compounds were assessed for their ability to modulate the function of the a7 nicotinic acetylcholine receptor both in the presence, and in the absence of the natural a7 agonist acetylcholine. A HEK cell line stably expressing both human RIC-3 and human a7 (PrecisION hnAChR a7/RIC-3. Eurofins Pharma, St. Charles, MO) was cultured in 175 cm^2 triple-layer tissue culture flasks to no more than 90% confluency in DMEM/F-12 growth media supplemented with 10% heat-inactivated fetal bovine serum, 1% non-essential amino acids. 0.625 μg/mL Puromycin, and 400 μg/mL Geneticin. Immediately prior to assay, cells were detached by first aspirating growth media, rinsing with Dulbecco's phosphate buffered saline, and then adding 10 mL of Accutase (Innovative Cell Technologies, San Diego, CA) to the flask and then incubating at 37° C. for 5 minutes. Detached cells were then recovered by the addition of 40 mL of CHO-serum-free media supplemented with 25 mM HEPES, and rocked gently in a 50 ml conical tube for 20 minutes prior to patch-clamp assay. After recovery, cells were pelleted by centrifugation at 1.000 RPM for 1 minute in a compact bench top centrifuge: recovery media was aspirated and cells were resuspended in external recording solution (150 mM NaCl, 5 mM KCl, 2 mM CaCl2), 1 mM MgCl2, 10 mM HEPES, 12 mM dextrose) to a density of 5.0×10^6 cells/mL. The cell suspension was added to the cell inlet wells on an IonFlux HT population patch plate which had previously been rinsed and primed with deionized H2O. Test compounds were serially diluted in DMSO and then resuspended to the final test concentration in external recording solution, with, or without 40 μM acetylcholine added to the external recording solution: test compounds were then transferred to the IonFlux HT population patch plate. Internal recording solution (110 mM TrisPO4, 28 mM TrisBase, 0.1 mM CaCl2), 2 mM MgCl2, 11 mM EGTA, 4 mM MgATP) was added to the internal recording solution inlet wells on the IonFlux HT patch plate previously loaded with cells and test compounds, and the plate loaded into the lonFlux HT instrument. A protocol was executed on the IonFlux HT to trap the cells, break into the cells, and establish the whole-cell recording configuration: cells were voltage-clamped at a holding potential of −60 mV for the duration of the experiment, all experiments were conducted at room temperature, and the IonFlux HT injection pressure was 8 psi for solution applications. Upon establishing the whole-cell configuration, external recording solution was perfused into the recording chambers for 120 seconds and then 40 μM acetylcholine was applied for 1 second and immediately washed off with external recording solution for 60 seconds. […]

T1 sequence (P36544 23-502): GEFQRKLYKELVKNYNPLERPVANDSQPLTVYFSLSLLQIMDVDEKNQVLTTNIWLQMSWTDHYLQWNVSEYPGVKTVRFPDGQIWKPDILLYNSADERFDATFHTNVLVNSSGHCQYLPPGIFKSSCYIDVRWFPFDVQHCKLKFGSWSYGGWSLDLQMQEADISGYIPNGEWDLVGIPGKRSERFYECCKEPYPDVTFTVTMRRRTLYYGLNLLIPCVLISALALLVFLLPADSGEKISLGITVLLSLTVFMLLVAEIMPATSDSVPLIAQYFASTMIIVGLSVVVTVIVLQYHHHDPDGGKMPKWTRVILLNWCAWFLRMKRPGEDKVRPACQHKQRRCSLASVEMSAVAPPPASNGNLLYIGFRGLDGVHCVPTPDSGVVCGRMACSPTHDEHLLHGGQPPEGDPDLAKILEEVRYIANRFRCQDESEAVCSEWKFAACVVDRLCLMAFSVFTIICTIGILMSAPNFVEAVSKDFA

Structure (SMILES)	EC50 (read-out: a7 nAChR EC50)	EC50 (read-out: α7 nAChR Potency)
CCOc1ccc([C@@H](NC(=O)C2CC23COc2ccc(F)cc23)C(F)F)cn1 (stereo in doubt) [Example A12, cis-N-[(1R)-1-(6-Ethoxypyridin-3-yl)-2,2-difluoroethyl]-5-fluoro-2H-spiro[1-benzofuran-3,1′-cyclopropane]-2′-carboxamide]	3000 nM	500 to 5000 nM
COc1cc(C2(NC(=O)C3CC34COc3ccc(F)cc34)CC2)ccn1 (stereo not drawn) [Example A17, cis-S-Fluoro-N-[1-(2-methoxypyridin-4-vl)cyclopropyl]-2H-spiro[1-benzofuran-3,1′-cyclopropane]-2′-carboxamide]	2300 nM	500 to 5000 nM
CCOc1ccc(C(CO)NC(=O)C2CC23COc2ccc(F)cc23)cn1 [Example A11, cis-N-[ (1R)-1-(6-Ethoxypyridin-3-yl)-2-hydroxyethyl]-5-fluoro-2H-spiro[1-benzofuran-3,1′-cyclopropane]-2′-carboxamide]	5800 nM	5000 to 50000 nM
CCOc1ccc([C@H](COC)NC(=O)C2CC23COc2ccc(F)cc23)cc1 (stereo in doubt) [Example A10, cis-N-[(1R)-1-(4-Ethoxyphenyl)-2-methoxyethyl]-5-fluoro-2H-spiro[I-benzofuran-3,1′-cyclopropane]-2′-carboxamide]	–	500 to 5000 nM
CCOc1ccc([C@H](CF)NC(=O)C2CC23COc2ccc(F)cc23)cn1 (stereo in doubt) [Example A13, cis-N-[(1R)-1-(6-Ethoxypyridin-3-yl)-2-fluoroethyl]-5-fluoro-2H-spiro[1-benzofuran-3,1′-cyclopropane]-2′-carboxamide]	790 nM	500 to 5000 nM
O=C(N[C@@H](CO)C1CCCCC1)C1CC12COc1ccc(F)cc12 (stereo in doubt) [Example A15, cis-N-[ (1R)-1-Cyclohexyl-2-hydroxyethyl]-5-fluoro-2H-spiro[1-benzofuran-3,1′-cyclopropane]-2′-carboxamide]	770 nM	500 to 5000 nM
O=C(N[C@@H](CO)C1CCCCC1)C1CC12COc1ccccc12 (some centres unmarked) [Example A8]	630 nM	500 to 5000 nM
O=C(N[C@@H](C(F)F)C1CCCCC1)C1CC12COc1ccc(F)cc12 (stereo in doubt) [Example A14, cis-N-[(1R)-1-Cyclohexyl-2,2-difluoroethyl]-5-fluoro-2H-spiro[1-benzofuran-3,1′-cyclopropane]-2′-carboxamide]	–	500 to 5000 nM
COc1ccc(C2(NC(=O)[C@@H]3C[C@]34COc3ccc(F)cc34)CC2)cn1 (relative stereo) [Example A16, cis-5-Fluoro-N-[1-(6-methoxypyridin-3-yl)cyclopropyl]-2H-spiro[1-benzofuran-3,1′-cyclopropane]-2′-carboxamide]	–	500 to 5000 nM

Continued, values first:

EC50 (read-out: a7 nAChR EC50)	EC50 (read-out: α7 nAChR Potency)	Structure (SMILES)
1600 nM	500 to 5000 nM	CCOc1ccc([C@H](COC)NC(=O)C2CC23CCc2ccc(F)cc23)cc1 (single isomer, unassigned) [Example A2]
–	500 to 5000 nM	O=C(NC1(c2ccc(F)cc2)COC1)C1CC12CCc1ccc(F)cc12 (centres unmarked) [Example A6]
1400 nM	500 to 5000 nM	CCOc1ccc([C@H](CO)NC(=O)C2CC23CCc2ccc(F)cc23)cn1 (stereo partly drawn) [Example A5, N-[(1R)-1-(6-Ethoxypyridin-3-yl)-2-hydroxyethyl]-6′-fluoro-2′, 3′-dihydrospiro[cyclopropane-1,1′-indene]-2-carboxamide]
4500 nM	500 to 5000 nM	CCOc1ccc([C@H](COC)NC(=O)C2CC23CCc2ccccc23)cc1 (mixture of isomers) [Example 1, N-[(1R)-1-(4-Ethoxyphenyl)-2-Methoxy-Ethyl[-2′,3′-Dihydrospiro]Cyclopropane-1,1′-Indene]-2-Carboxamide, Mixture a]
590 nM	500 to 5000 nM	CCOc1ccc([C@H](COC)NC(=O)C2CC23CCc2cc(F)ccc23)cc1 (single isomer, unassigned; diastereomer b) [Example 4]
700 nM	500 to 5000 nM	CCOc1ccc([C@H](COC)NC(=O)C2CC23CCc2ccc(F)cc23)cc1 (single isomer, unassigned) [Example A3]
1200 nM	500 to 5000 nM	O=C(N[C@@H](CO)C1CCCCC1)C1CC12CCc1ccc(F)cc12 (stereo partly drawn) [Example A4, N-[(1R)-1-Cyclohexyl-2-hydroxyethyl]-6′-fluoro-2′, 3′-dihydrospiro[cyclopropane-1,1′-indene]-2-carboxamide]
–	500 to 5000 nM	O=C(N[C@@H](C(F)F)C1CCCCC1)C1CC12CCc1ccc(F)cc12 (stereo partly drawn) [Example A7, N-[(1R)-1-Cyclohexyl-2,2-difluoroethyl]-6′-fluoro-2′, 3′-dihydrospiro[cyclopropane-1,1′-indene]-2-carboxamide]
740 nM	500 to 5000 nM	CCOc1ccc([C@H](COC)NC(=O)C2CC23CCCc2ccccc23)cc1 (single isomer, unassigned) [Example B1]
3200 nM	500 to 5000 nM	O=C(NC1(c2ccc(F)cc2)COC1)C1CC12CCc1ccccc12 (racemic) [Example A1, N-[3-(4-Fluorophenyl)oxetan-3-yl]-2′, 3′-dihydrospiro[cyclopropane-1,1′-indene]-2-carboxamide]
1100 nM	500 to 5000 nM	O=C(NC1(c2ccc(F)cc2)COC1)C1CC12COc1ccccc12 (centres unmarked) [Example A9, N-[3-(4-Fluorophenyl)oxetan-3-yl]-2H-spiro[1-benzofuran-3,1′-cyclopropane]-2′-carboxamide]
690 nM	500 to 5000 nM	CCOc1ccc([C@H](COC)NC(=O)[C@@H]2C[C@]23CCc2ccccc23)cc1 [Example 3, (1R,2R)-N-[ (1R)-1-(4-Ethoxyphenyl)-2-Methoxy-Ethyl]-2′,3′-Dihydrospiro[Cyclopropane-1,1′-Indene]-2-Carboxamide]
420 nM	100 to 500 nM	CCOc1ccc([C@H](COC)NC(=O)C2CC23CCc2ccccc23)cc1 (mixture of isomers) [Example 2, N-[(1R)-1-(4-Ethoxyphenyl)-2-Methoxy-Ethyl]-2′,3′-Dihydrospiro[Cyclopropane-1,1′-Indene]-2-Carboxamide, Mixture B]
480 nM	100 to 500 nM	CCOc1ccc([C@H](COC)NC(=O)C2CC23COc2ccc(F)cc23)cc1 (single isomer, unassigned; diastereomer d) [Example 5]
